Values of other authors as cited in US20080254114A1, “Controlled Release Compositions Comprising Heterocyclic Amide Derivative Nanoparticles” (Elan Corporation plc, priority 2005, published 2008).

Assays:
[1] = administration with food; high fat meal and high protein meal, two separate studies
[2] = tested on: leukotrienes (LTC4, LTD4 and LTE4); details: conducting airway smooth muscle, in vitro
LTD4 = details: inhaled LTD4
[3] = tested on: airway responses to antigen; details: sensitized sheep, inhalational challenge

COc1cc(C(=O)NS(=O)(=O)c2ccccc2C)ccc1Cc1cn(C)c2ccc(NC(=O)OC3CCCC3)cc12 [Zafirlukast, 4-(5-cyclopentyloxy-carbonylamino-1-methyl-indol-3-ylmethyl)-3-methoxy-N-o-tolylsulfonylbenzamide]
solubility in acetone (acetone): freely soluble
solubility in dimethyl-sulfoxide (dimethyl-sulfoxide): freely soluble
solubility in methanol (methanol): slightly soluble
solubility in tetrahydrofuran (tetrahydrofuran): freely soluble
solubility in water (water): practically insoluble
reduction of mean bioavailability by food [1]: approximately 40%
contractile activity of LTC4, LTD4 and LTE4 [2]: antagonized
LTD4-induced influx of eosinophils into animal lungs (LTD4): inhibited
airway responses to antigen (early- and late-phase response, nonspecific hyperresponsiveness) [3]: suppressed
increase in bronchial hyperresponsiveness to inhaled histamine (bronchoconstriction; following inhaled allergen challenge): attenuated
early- and late-phase reaction caused by inhalation of antigens (grass, cat dander, ragweed, mixed antigens) (bronchoconstriction; patients with asthma, pretreatment with single doses): attenuated
bronchoconstriction caused by sulfur dioxide and cold air (bronchoconstriction; patients with asthma, pretreatment with single oral doses): inhibited
